In patent US20020086278A1, “CHROMOGENIC MEDIA CONTAINING BLOOD OR HEMIN” (priority 1999, published 2002):
“Also recorded” adds a separate entry of the source. Read-outs that look alike come from different tables or passages of the source.

Columns and labels:
[1] = system: Gardnerella vaginalis 14019; assay: Example 1: growth and colony color on plates surface-spread with chromogen; format: cell-based; details: Summary of Table I; G. vaginalis 14014
Group B Strep. 12386 = assay: as above; format: cell-based; details: for Color: Group B Strep 12386
E. coli 25922 = assay: Example 2: effect of incubation conditions on colony color formation; format: cell-based, Escherichia coli; details: 0.004 g/plate
N. gonorrhoeae 35201 = assay: Example 1: growth and colony color on plates surface-spread with chromogen; format: cell-based; details: Summary of Table I; N. gonorrhoeae 35201
S. agalactiae 12386 = assay: Example 2: effect of incubation conditions on colony color formation; format: cell-based, Streptococcus agalactiae; details: 0.004 g/plate, 24 h, CO2
[2] = system: Staphylococcus aureus (stau); assay: Example 3: colony color on chromogenic TSA II with 5% sheep blood (chromogen in medium); format: cell-based
Candida albicans (caal) = assay: as above; format: cell-based
milu 9341 = assay: as above; format: cell-based; details: CO2, 18 h
S pyogenes (stpy) = assay: as above; format: cell-based; details: CO2, 18 h
[3] = system: Citrobacter freundii (cifr); assay: as above; format: cell-based; details: for Colony Color: CO2, 18 h
[4] = system: Entercoccus faecalis (enfa); assay: as above; format: cell-based; details: for Colony Color: CO2, 18 h
[5] = system: Klebsiella pneumoniae (klpn); assay: as above; format: cell-based; details: for Colony Color: CO2, 18 h
[6] = system: Branhamella catarrhalis (brca); assay: as above; format: cell-based; details: for Colony Color: CO2, 18 h
[7] = system: Serratia marcescens (sema); assay: as above; format: cell-based
Escherichia coli 25922 = assay: Example 1: growth and colony color on plates surface-spread with chromogen; format: cell-based; details: E. coli 25922
E. faecium (enfu) = assay: Example 3: colony color on chromogenic TSA II with 5% sheep blood (chromogen in medium); format: cell-based
S. milleri (stmi) = assay: as above; format: cell-based
[8] = system: Staphylococcus Coag Neg (step); assay: as above; format: cell-based; details: for Colony Color on Various Chromogenic TSA II with 5% Sheep Blood: CO2, 18 h
[9] = system: Streptococcus agalactiae (stag); assay: as above; format: cell-based; details: chromogenic TSA II with 5% Sheep Blood, 0.1 g/l; 3 strains tested
Salmonella spp. (sasp) = format: cell-based; details: for Colony Color: CO2, 18 h
[10] = system: Branhamella catarrhalis 25238; assay: Example 1: growth and colony color on plates surface-spread with chromogen; format: cell-based; details: TSA Plain; B. catt 25258
cakr 34135 = assay: Example 3: colony color on chromogenic TSA II with 5% sheep blood (chromogen in medium); format: cell-based; details: CO2, 18 h
[11] = system: Aeromonas hydrophilia (aehy); assay: as above; format: cell-based; details: for Colony Color: CO2, 18 h
[12] = chromogenic TSA II with 5% Sheep Blood, 0.1 g/l, 5 strains tested
[13] = chromogenic TSA II with 5% Sheep Blood, 0.1 g/l, 2 strains tested
[14] = chromogenic TSA II with 5% Sheep Blood, 0.1 g/l, 3 strains tested
[15] = chromogenic TSA II with 5% Sheep Blood, 0.1 g/l, 1 strain tested

O=C(O)[C@H]1O[C@@H](Oc2c[nH]c3ccc(Br)c(Cl)c23)[C@H](O)[C@@H](O)[C@@H]1O [X-Glucuro, X-Glucuronide]
Substrates Producing Growth Inhibition [1]: Glucuro | Color (Group B Strep. 12386; Choc II): blue | Substrates Producing Color (Group B Strep. 12386; Summary of Table I, Group B Strep. 12386): Glucuro | Color (Group B Strep. 12386; TSA II 5SB): blue with beta hemolysis; also recorded: blue (a) | Color (Group B Strep. 12386; TSA Plain): blue | Colony Color (E. coli 25922; Chocolate II Agar, 24 h, air): blue (d) | Colony Color (E. coli 25922; TSA II 5% Sheep Blood, 24 h, air): blue (d) | Colony Color (E. coli 25922; TSA II 5% Sheep Blood, 5 d, ANA): blue (m) | Colony Color (E. coli 25922; TSA II 5% Sheep Blood, 5 d, MA): blue (m) | Substrates Producing Growth Inhibition (N. gonorrhoeae 35201): X-Glucuro | Colony Color (S. agalactiae 12386; Chocolate II Agar): blue (d) | Colony Color (S. agalactiae 12386; TSA II 5% Sheep Blood): blue (d) | Colony Color (Summary) [2, 12]: 0 | Colony Color ([2]; stau 25923, CO2, 18 h): 0 | Colony Color on Various Chromogenic TSA II with 5% Sheep Blood ([2]; stau t006, CO2, 18 h): 0 | Colony Color on Various Chromogenic TSA II with 5% Sheep Blood ([2]; stau t007, CO2, 18 h): 0 | Colony Color on Various Chromogenic TSA II with 5% Sheep Blood ([2]; stau t008, CO2, 18 h): 0 | Colony Color on Various Chromogenic TSA II with 5% Sheep Blood ([2]; stau t009, CO2, 18 h): 0 | Colony Color (Candida albicans (caal); caal 10231, CO2, 18 h): 0 | Colony Color (Summary) (Candida albicans (caal); [13]): 0 | Colony Color (milu 9341): ly | Colony Color on Various Chromogenic TSA II with 5% Sheep Blood (S pyogenes (stpy); stpy 51339): db beta | Colony Color on Various Chromogenic TSA II with 5% Sheep Blood (S pyogenes (stpy); stpy t027): 0 | Colony Color on Various Chromogenic TSA II with 5% Sheep Blood (S pyogenes (stpy); stpy t028): 0 | Colony Color on Various Chromogenic TSA II with 5% Sheep Blood (S pyogenes (stpy); stpy t029): 0 | Colony Color on Various Chromogenic TSA II with 5% Sheep Blood (S pyogenes (stpy); stpy t030): 0 | Colony Color (Summary) [3, 13]: 0 | Colony Color ([3]; cifr 8454): 0 | Colony Color ([3]; cifr 33128): 0 | Colony Color (Summary) ([4]; chromogenic TSA II with 5% Sheep Blood, 0.1 g/l, 6 strains tested): 0 | Colony Color ([4]; enfa 597): 0 | Colony Color ([4]; enfa 10741): 0 | Colony Color ([4]; enfa 12953): 0 | Colony Color ([4]; enfa 14506): 0 | Colony Color ([4]; enfa 29212): 0 | Colony Color (Summary) [5, 14]: 0 | Colony Color ([5]; klpn 13883): 0 | Colony Color ([5]; klpn 33495): 0 | Colony Color ([5]; klpn 33606): 0 | Colony Color ([6]; brca 25238): 0 | Colony Color ([6]; brca 25240): 0 | Colony Color (Summary) [6, 13]: 0 | Colony Color (Summary) [7, 15]: 0 | Colony Color ([7]; sema 13880, CO2, 18 h): 0 | Color (Escherichia coli 25922; Choc II): blue | Substrates Producing Color (Escherichia coli 25922; Summary of Table I): X-Glucuro | Color (Escherichia coli 25922; TSA II 5SB): blue | Color (Escherichia coli 25922; TSA Plain): blue | Colony Color (Summary) (E. faecium (enfu); [15]): 0 | Colony Color (E. faecium (enfu); enfu 49032, CO2, 18 h): 0 | Colony Color (Summary) (S. milleri (stmi); [13]): 0 | Colony Color on Various Chromogenic TSA II with 5% Sheep Blood (S. milleri (stmi); stmi 6242, CO2, 18 h): 0 | Colony Color (Summary) [8, 12]: 0 | Colony Color on Various Chromogenic TSA II with 5% Sheep Blood ([8]; step 12228): 0 | Colony Color on Various Chromogenic TSA II with 5% Sheep Blood ([8]; step cdc1): 0 | Colony Color on Various Chromogenic TSA II with 5% Sheep Blood ([8]; step cdc4): 0 | Colony Color on Various Chromogenic TSA II with 5% Sheep Blood ([8]; stha cdc2): 0 | Colony Color on Various Chromogenic TSA II with 5% Sheep Blood ([8]; stsa cdc3): 0 | Colony Color (Summary) [9]: 0 | Colony Color (Summary) (Salmonella spp. (sasp); [13]): 0 | Colony Color (Salmonella spp. (sasp); saty 19430): 0 | Colony Color (Salmonella spp. (sasp); satym 14028): 0 | Growth [10]: >> | Colony Color (cakr 34135): 0 | Colony Color ([11]; aehy 7965): 0 | Colony Color ([11]; aehy 7966): 0 | Colony Color ([11]; aehy 49847): 0 | Colony Color (Summary) [11, 14]: 0
